One data set concerns the target kallikrein. In words: Enzyme inhibition, TAME hydrolysis, kallikrein (method of Muramatsu et al.). The format is biochemical. Conditions: read-out: ID50, kallikrein. How it is done: (§1) The enzyme inhibitory activity was determined according to the method of Muramatsu et al. [M. Muramatsu, T. Onishi, S. Makino, Y. Hayashi and S. Fujii, J. Biochem., 58, 214 (1965)]. The data summarized in Table 1 are expressed in terms of molar concentration (ID50) of the test compound which inhibits 50% of the activity of each enzyme to hydrolyze TAME (tosylarginine methyl ester).

For a further data set, the target named is T1, trypsin (Bos taurus, UniProt P00760).
T1 sequence (P00760 24-246): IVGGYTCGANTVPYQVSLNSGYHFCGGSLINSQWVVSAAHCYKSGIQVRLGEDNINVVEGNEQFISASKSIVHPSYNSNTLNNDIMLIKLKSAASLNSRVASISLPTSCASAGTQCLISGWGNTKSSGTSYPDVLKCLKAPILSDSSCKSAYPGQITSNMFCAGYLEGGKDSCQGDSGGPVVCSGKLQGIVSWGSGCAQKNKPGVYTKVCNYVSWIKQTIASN
In words: Enzyme inhibition, TAME hydrolysis, trypsin (method of Muramatsu et al.). Type of data set: biochemical. Particulars: hydrolysis of TAME; read-out: ID50, trypsin. The method, then:
as §1

Another data set deals with T2, Cls (Homo sapiens, UniProt P09871).
T2 sequence (P09871 438-688 limits assumed): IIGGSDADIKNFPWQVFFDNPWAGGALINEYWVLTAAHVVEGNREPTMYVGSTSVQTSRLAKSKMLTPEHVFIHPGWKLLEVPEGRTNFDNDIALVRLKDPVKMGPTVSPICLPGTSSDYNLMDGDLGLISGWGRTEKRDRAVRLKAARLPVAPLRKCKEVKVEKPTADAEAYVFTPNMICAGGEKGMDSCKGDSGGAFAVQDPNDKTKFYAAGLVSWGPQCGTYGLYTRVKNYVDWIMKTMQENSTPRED
T2 sequence (P09871 16-437 partner limits assumed): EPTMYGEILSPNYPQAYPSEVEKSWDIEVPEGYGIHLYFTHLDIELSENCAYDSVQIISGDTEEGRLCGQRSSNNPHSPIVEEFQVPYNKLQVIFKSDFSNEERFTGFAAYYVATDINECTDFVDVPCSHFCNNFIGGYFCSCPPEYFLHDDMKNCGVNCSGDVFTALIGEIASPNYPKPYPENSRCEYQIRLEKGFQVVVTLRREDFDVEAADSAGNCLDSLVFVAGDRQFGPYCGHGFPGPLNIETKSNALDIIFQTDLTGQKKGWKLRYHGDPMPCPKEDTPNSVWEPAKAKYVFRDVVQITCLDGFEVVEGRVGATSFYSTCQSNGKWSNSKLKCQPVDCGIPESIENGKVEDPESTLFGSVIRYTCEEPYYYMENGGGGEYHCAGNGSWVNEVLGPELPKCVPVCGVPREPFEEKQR
In words: Anti-Cl esterase activity, Cls (ATEE hydrolysis, method of Okamura et al.). The format is biochemical. Particulars: read-out: Anti-C1 activity, Cls (ID50). How it is done: (§2) The anti-Cl esterase (Clr, Cls) activity was determined according to the method of Okamura et al. [K. Okamura, M. Muramatsu and S. Fujii, Biochem. Biophys. Acta, 295, 252-257 (1973)]. The inhibition of complement mediated hemolysis (percent) was determined according to the method of Baker et al. [B. R. Baker and E. H. Erickson, J. Med. Chem., 12, 408-414 (1969)]. The figures in Table 2 have the following meanings:
Cls: Molar concentration of the test compound which inhibits 50% of the ability of Cls to hydrolyse ATEE (acetyltyrosin ethyl ester) (ID50).

In a further data set the target is thrombin (Bos taurus, UniProt P00735). Nature of the data set: Enzyme inhibition, TAME hydrolysis, thrombin (method of Muramatsu et al.). Type of data set: biochemical. How it is done:
as §1

A short description of data set [1]: Toxicity, lethal dose (LD50). Conditions: mouse, in vivo.
In the next data set the target is T3, Clr (Homo sapiens, UniProt P00736).
T3 sequence (P00736 464-705 limits assumed): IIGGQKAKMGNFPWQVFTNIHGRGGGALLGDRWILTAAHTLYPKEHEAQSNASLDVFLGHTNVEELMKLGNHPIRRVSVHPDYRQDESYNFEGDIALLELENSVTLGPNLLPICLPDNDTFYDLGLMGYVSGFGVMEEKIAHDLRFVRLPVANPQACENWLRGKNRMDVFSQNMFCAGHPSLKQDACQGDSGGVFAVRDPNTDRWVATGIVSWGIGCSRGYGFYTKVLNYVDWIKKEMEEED
T3 sequence (P00736 18-463 partner limits assumed): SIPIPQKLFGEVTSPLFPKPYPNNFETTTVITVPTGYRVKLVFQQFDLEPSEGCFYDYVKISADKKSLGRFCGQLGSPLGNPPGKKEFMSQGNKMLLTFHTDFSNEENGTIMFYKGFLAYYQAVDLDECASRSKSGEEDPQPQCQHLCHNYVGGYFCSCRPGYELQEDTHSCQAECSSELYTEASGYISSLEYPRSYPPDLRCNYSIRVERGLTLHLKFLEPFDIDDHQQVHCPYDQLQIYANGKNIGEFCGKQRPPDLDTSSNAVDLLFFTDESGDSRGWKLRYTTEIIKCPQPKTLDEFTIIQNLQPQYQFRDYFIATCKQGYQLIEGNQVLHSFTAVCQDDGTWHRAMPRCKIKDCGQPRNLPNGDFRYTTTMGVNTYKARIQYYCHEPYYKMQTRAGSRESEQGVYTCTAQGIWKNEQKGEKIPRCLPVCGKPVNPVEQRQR
Nature of the data set: Anti-Cl esterase activity, Clr (AAME hydrolysis, method of Okamura et al.). Type of data set: biochemical. Conditions: read-out: Anti-C1 activity, Clr (ID50). The method, then: as §2
Clr: Molar concentration of the test compound which inhibits 50% of the ability of Clr to hydrolyse AAME (acetylarginin methyl ester) (ID50).

Another data set addresses plasmin (Homo sapiens, UniProt P00747). Nature of the data set: Enzyme inhibition, TAME hydrolysis, plasmin (method of Muramatsu et al.). Particulars: read-out: ID50, plasmin. Type of data set: biochemical. How it is done: as §1
Data set [2] deals with complement mediated hemolysis. Nature of the data set: Inhibition of complement mediated hemolysis (method of Baker et al.). Type of data set: cell-based.

Like-named read-outs stand apart in the source and are kept apart here.

The record followed here is patent US4496584A, “Amidine derivatives with anti-complement activity” (Torii & Co. Ltd., priority 1981, dated 1985).

Chain of plasmin (P00747 581-810 limits assumed): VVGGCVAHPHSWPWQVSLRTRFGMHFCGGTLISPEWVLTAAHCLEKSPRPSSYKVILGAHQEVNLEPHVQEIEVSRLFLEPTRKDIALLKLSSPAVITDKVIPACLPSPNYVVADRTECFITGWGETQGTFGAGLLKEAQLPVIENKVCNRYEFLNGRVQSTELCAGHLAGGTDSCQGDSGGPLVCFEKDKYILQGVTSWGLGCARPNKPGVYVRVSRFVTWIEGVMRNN
Chain of plasmin (P00747 97-580 partner limits assumed): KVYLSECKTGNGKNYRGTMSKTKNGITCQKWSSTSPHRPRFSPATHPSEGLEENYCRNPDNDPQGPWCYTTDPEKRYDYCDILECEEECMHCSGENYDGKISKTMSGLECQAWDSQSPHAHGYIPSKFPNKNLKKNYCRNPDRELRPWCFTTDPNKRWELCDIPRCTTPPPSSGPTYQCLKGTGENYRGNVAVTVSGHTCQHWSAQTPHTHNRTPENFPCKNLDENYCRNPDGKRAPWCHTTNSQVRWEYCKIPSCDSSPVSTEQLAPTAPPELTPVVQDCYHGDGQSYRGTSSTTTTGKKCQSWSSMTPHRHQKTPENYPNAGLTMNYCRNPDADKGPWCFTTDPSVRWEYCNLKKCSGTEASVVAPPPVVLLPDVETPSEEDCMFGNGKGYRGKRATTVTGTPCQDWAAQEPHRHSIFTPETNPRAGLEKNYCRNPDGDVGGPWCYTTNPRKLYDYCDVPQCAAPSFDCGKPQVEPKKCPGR

As for `CC(=O)Oc1ccc2cc(C(=N)N)ccc2c1` [Compound No. 1, 6-amidino-2-naphthyl acetate], the IC50 worked out at 500 µM on kallikrein; 80 µM on trypsin; 20 µM at Cls; 400 µM against thrombin; 10 µM on Clr; 200 µM at plasmin. Further, the 50% lethal dose (LD50) in data set [1] (ip, read-out: LD50 Mouse IP) worked out at 200 mg/kg; in data set [1] (po, read-out: LD50 Mouse PO), 2500 mg/kg. Further, the “Inhibition of complement mediated hemolysis (%)” value (shortened to “Inhibition … (%)”) came out at 86% in data set [2] (concentration 1 × 10^-4), 15% in data set [2] (concentration 1 × 10^-5), 0% in data set [2] (concentration 1 × 10^-6) and 0% in data set [2] (concentration 1 × 10^-7).
In the case of `CCCC(=O)Oc1ccc2cc(C(=N)N)ccc2c1` [Compound No. 2, 6-amidino-2-naphthyl n-butyrate], the IC50 came out at 700 µM at kallikrein; 20 µM at trypsin; 20 µM on Cls; 20 µM at thrombin; 9 µM on Clr; 30 µM at plasmin. Moreover, the LD50 in data set [1] (ip, read-out: LD50 Mouse IP) was 200 mg/kg; in data set [1] (po, read-out: LD50 Mouse PO), 2500 mg/kg. Further, the “Inhibition … (%)” value turned out to be 96% in data set [2] (concentration 1 × 10^-4), 40% in data set [2] (concentration 1 × 10^-5), 1% in data set [2] (concentration 1 × 10^-6) and 0% in data set [2] (concentration 1 × 10^-7).
For `CC(C)CC(=O)Oc1ccc2cc(C(=N)N)ccc2c1` [Compound No. 3, 6-amidino-2-naphthyl isovalerate], the IC50 on kallikrein came out at 500 µM; at trypsin it was 30 µM; on Cls it was 2 µM; on thrombin it was 80 µM; on Clr, 2 µM; on plasmin, 30 µM. The “Inhibition … (%)” value in data set [2] (concentration 1 × 10^-4) was 95%; in data set [2] (concentration 1 × 10^-5), 37%; in data set [2] (concentration 1 × 10^-6) it was 0%; in data set [2] (concentration 1 × 10^-7), 0%.
`N=C(N)c1ccc2cc(OC(=O)C3CC3)ccc2c1` [Compound No. 10, 6-amidino-2-naphthyl cyclopropanecarboxylate]: the IC50 on kallikrein was 100 µM; on trypsin, 2 µM; at Cls, 0.3 µM; at thrombin, 3 µM; at Clr it was 0.2 µM; on plasmin it was 4 µM. The “Inhibition … (%)” value in data set [2] (concentration 1 × 10^-4) is recorded as 100%; in data set [2] (concentration 1 × 10^-5), 92%; in data set [2] (concentration 1 × 10^-6) it was 18%; in data set [2] (concentration 1 × 10^-7), 0%.
In the case of `N=C(N)c1ccc2cc(OC(=O)C3CCCCC3)ccc2c1` [Compound No. 12, 6-amidino-2-naphthylcyclohexanecarboxylate], the IC50 on kallikrein is > 10 µM; at trypsin, 20 µM; at Cls it was 3 µM; at thrombin, 40 µM; at Clr, 2 µM; at plasmin, 10 µM. The “Inhibition … (%)” value in data set [2] (concentration 1 × 10^-4) was 45%; in data set [2] (concentration 1 × 10^-5), 10%; in data set [2] (concentration 1 × 10^-6), 11%; in data set [2] (concentration 1 × 10^-7), 0%.
On to `N=C(N)c1ccc2cc(OC(=O)CCCCCNC(=O)OCc3ccccc3)ccc2c1` [Compound No. 16, 6-amidino-2-naphthyl ε-benzyloxycarbonylaminocaproate], for which the IC50 on kallikrein was determined as 40 µM; on trypsin, 10 µM; at Cls, 4 µM; against thrombin it was 100 µM; at Clr it was 4 µM; on plasmin, 3 µM. Also, the “Inhibition … (%)” value is 92% in data set [2] (concentration 1 × 10^-4), 15% in data set [2] (concentration 1 × 10^-5), 0% in data set [2] (concentration 1 × 10^-6) and 0% in data set [2] (concentration 1 × 10^-7).
Turning to `N=C(N)NCCCCCC(=O)Oc1ccc2cc(C(=N)N)ccc2c1` [Compound No. 18, 6-amidino-2-naphthyl ε-guanidinocaproate], the IC50 at kallikrein was > 10 µM; on trypsin, 10 µM; at Cls it was 9 µM; against thrombin, 40 µM; on Clr, 70 µM; at plasmin, 30 µM. The “Inhibition … (%)” value in data set [2] (concentration 1 × 10^-4) is recorded as 92%; in data set [2] (concentration 1 × 10^-5), 30%; in data set [2] (concentration 1 × 10^-6), 3%; in data set [2] (concentration 1 × 10^-7), 0%.
`CCCCCC(=O)Oc1ccc2cc(C(=N)N)ccc2c1` [compound 4, 6-amidino-2-naphthyl caproate]: the IC50 on kallikrein worked out at 300 µM; at trypsin, 20 µM; on Cls, 4 µM; on thrombin, 3000 µM; on Clr, 5 µM; on plasmin it was 20 µM. In addition, the “Inhibition … (%)” value in data set [2] (concentration 1 × 10^-4) was 83%; in data set [2] (concentration 1 × 10^-5), 12%; in data set [2] (concentration 1 × 10^-6) it was 5%; in data set [2] (concentration 1 × 10^-7) it was 0%.
For the compound `N=C(N)c1ccc2cc(OC(=O)[C@H]3CC[C@H](CNC(=O)OCc4ccccc4)CC3)ccc2c1` [compound 19, 6-amidino-2-naphtyl trans-4-benzyloxycarbonylaminomethylcyclohexanecarboxylate], the IC50 was determined as 6 µM on kallikrein; 1 µM at trypsin; 0.4 µM on Cls; 30 µM against thrombin; 0.4 µM at Clr; 0.8 µM at plasmin. Further, the “Inhibition … (%)” value is given as 55% in data set [2] (concentration 1 × 10^-4), 88% in data set [2] (concentration 1 × 10^-5), 25% in data set [2] (concentration 1 × 10^-6) and 6% in data set [2] (concentration 1 × 10^-7).
